Data published in ChEMBL document CHEMBL1128353, “A novel approach to dual-acting thromboxane receptor antagonist/synthase inhibitors based on the link of 1,3-dioxane-thromboxane receptor antagonists and -thromboxane synthase inhibitors” (J Med Chem, 1995).

What was measured:
[1] = species: Homo sapiens; assay: Antagonistic activity against human platelet aggregation induced by U-46,619.; format: functional, organism-based; settings: read-out: pA2 (converted)
[2] = target: T1, Thromboxane-A synthase (Homo sapiens, UniProt P24557); assay: In vitro inhibitory activity against human microsomal thromboxane synthase.
T1 sequence (P24557 whole entry): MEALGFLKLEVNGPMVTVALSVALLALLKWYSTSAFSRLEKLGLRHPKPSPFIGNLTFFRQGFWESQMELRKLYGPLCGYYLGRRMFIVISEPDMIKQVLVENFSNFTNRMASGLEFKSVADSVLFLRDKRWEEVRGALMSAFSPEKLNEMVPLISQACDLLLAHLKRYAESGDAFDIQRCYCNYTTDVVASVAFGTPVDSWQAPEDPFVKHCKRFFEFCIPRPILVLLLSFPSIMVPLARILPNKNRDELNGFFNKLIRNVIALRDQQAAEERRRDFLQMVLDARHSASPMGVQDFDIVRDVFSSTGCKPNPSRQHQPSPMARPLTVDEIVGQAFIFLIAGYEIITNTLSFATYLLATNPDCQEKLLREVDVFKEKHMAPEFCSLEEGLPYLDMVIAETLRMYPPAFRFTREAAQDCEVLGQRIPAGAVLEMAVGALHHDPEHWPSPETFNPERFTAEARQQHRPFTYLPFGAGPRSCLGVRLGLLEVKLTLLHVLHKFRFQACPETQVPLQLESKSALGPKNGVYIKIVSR

[3] = system: Rattus norvegicus; assay: Compound at an oral dose of 10 mg/Kg was tested ex vivo in rat after 5 hr against platelet aggregation induced by U-46,619; format: functional, organism-based; settings: read-out: pA2 (converted)
[4] = system: Canis familiaris; assay: Compound at an oral dose of 1 mg/Kg was tested ex vivo after 5 hr for inhibition of thromboxane synthase in dog; format: functional; settings: Canis lupus familiaris
[5] = system: Canis familiaris; assay: Compound at an oral dose of 1 mg/Kg was tested ex vivo after 3 hr for inhibition of thromboxane synthase in dog; format: functional; settings: Canis lupus familiaris
[6] = system: Rattus norvegicus; assay: Compound at an oral dose of 10 mg/Kg was tested ex vivo after 1 hr for inhibition of thromboxane synthase in rat; format: functional
[7] = system: Canis familiaris; assay: Compound at an oral dose of 1 mg/Kg was tested ex vivo after 1 hr for inhibition of thromboxane synthase in dog; format: functional; settings: Canis lupus familiaris
[8] = system: Rattus norvegicus; assay: Compound at an oral dose of 10 mg/Kg was tested ex vivo after 5 hr for inhibition of thromboxane synthase in rat; format: functional
[9] = system: Rattus norvegicus; assay: Compound at an oral dose of 10 mg/Kg was tested ex vivo after 3 hr for inhibition of thromboxane synthase in rat; format: functional

Row | Structure (SMILES) | Kb [1] [µM] | IC50 [2] [µM] | other results
1 | O=C(O)CC/C=C\C[C@@H]1CO[C@H](c2cncc(/C(=C\CCCCC(=O)O)c3ccccc3)c2)O[C@@H]1c1ccccc1O | 0.0251 | > 10 | –
2 | CC(C)(CCCCOc1ccc(/C(=C\CCCCC(=O)O)c2cccnc2)cc1)[C@H]1OC[C@@H](C/C=C\CCC(=O)O)[C@@H](c2ccccc2O)O1 | 0.251 | 0.03 | –
3 | O=C(O)CC/C=C\C[C@@H]1CO[C@H](c2ccc3cc(/C(=C\CCCCC(=O)O)c4cccnc4)ccc3c2)O[C@@H]1c1ccccc1O | 0.251 | 0.05 | –
4 | O=C(O)CC/C=C\C[C@@H]1CO[C@H](COc2cc(C(=O)O)ccc2OCCn2ccnc2)O[C@@H]1c1ccccc1O | 3.16 | 1.7 | –
5 | O=C(O)CC/C=C\C[C@@H]1CO[C@H](c2ccc(OCCCCCCOc3cc(C(=O)O)ccc3OCCn3ccnc3)cc2)O[C@@H]1c1ccccc1O | 0.158 | 0.04 | –
6 | O=C(O)CC/C=C\C[C@@H]1CO[C@H](c2ccc(OCCOc3ccc(/C(=C\CCCCC(=O)O)c4cccnc4)cc3)cc2)O[C@@H]1c1ccccc1O | 0.631 | 0.05 | –
7 | O=C(O)CC/C=C\C[C@@H]1CO[C@H](c2cccc(OCCOc3cc(C(=O)O)ccc3OCCn3ccnc3)c2)O[C@@H]1c1ccccc1O | 0.158 | 0.03 | –
8 | O=C(O)CC/C=C\C[C@@H]1CO[C@H](c2ccccc2OCCOc2cc(C(=O)O)ccc2OCCn2ccnc2)O[C@@H]1c1ccccc1O | 1.26 | 0.03 | –
9 | CC(C)(c1ccc(/C(=C\CCCCC(=O)O)c2cccnc2)cc1)[C@H]1OC[C@@H](C/C=C\CCC(=O)O)[C@@H](c2ccccc2O)O1 | 0.251 | 0.03 | –
10 | CC(C)(CCCCCc1ccc(/C(=C\CCCCC(=O)O)c2cccnc2)cc1)[C@H]1OC[C@@H](C/C=C\CCC(=O)O)[C@@H](c2ccccc2O)O1 | 0.501 | 0.01 | –
11 | O=C(O)CC/C=C\C[C@@H]1CO[C@H](c2ccc(OCCn3ccnc3)c(C(=O)O)c2)O[C@@H]1c1ccccc1O | 1.26 | 3.8 | –
12 | O=C(O)CC/C=C\C[C@@H]1CO[C@H](CCCCCOc2ccc(/C(=C\CCCCC(=O)O)c3cccnc3)cc2)O[C@@H]1c1ccccc1O | 0.2 | 0.01 | –
13 | O=C(O)CC/C=C\C[C@@H]1CO[C@H](c2ccccc2Cl)O[C@@H]1c1ccccc1O | 0.00316 | > 100 | Kb [3]: 0.1 µM
14 | O=C(O)CC/C=C\C[C@@H]1CO[C@H](c2ccc(COc3ccc(/C(=C\CCCCC(=O)O)c4cccnc4)cc3)cc2)O[C@@H]1c1ccccc1O | 0.2 | 0.02 | –
15 | O=C(O)CC/C=C\C[C@@H]1CO[C@H](C(CCC/C=C(/c2ccccc2)c2cccnc2)C(=O)O)O[C@@H]1c1ccccc1O (stereo partly drawn) | > 10 | 0.04 | –
16 | O=C(O)CC/C=C\C[C@@H]1CO[C@H](c2cccc(OCCOc3ccc(/C(=C\CCCCC(=O)O)c4cccnc4)cc3)c2)O[C@@H]1c1ccccc1O | 0.794 | 0.04 | –
17 | O=C(O)CC/C=C\C[C@@H]1CO[C@H](CCOc2ccc(/C(=C\CCCCC(=O)O)c3cccnc3)cc2)O[C@@H]1c1ccccc1O | 0.2 | 0.03 | –
18 | O=C(O)CC/C=C\C[C@@H]1CO[C@H](c2cccc(OCCCCCCOc3ccc(/C(=C\CCCCC(=O)O)c4cccnc4)cc3)c2)O[C@@H]1c1ccccc1O | 0.1 | 0.07 | –
19 | O=C(O)CC/C=C\C[C@@H]1CO[C@H](c2cncc(/C(=C/CCCCC(=O)O)c3ccccc3)c2)O[C@@H]1c1ccccc1O | 0.0398 | > 10 | –
20 | O=C(O)CC/C=C\C[C@@H]1CO[C@H](c2ccc(COc3cccc(/C(=C\CCCCC(=O)O)c4cccnc4)c3)cc2)O[C@@H]1c1ccccc1O | 0.1 | 0.01 | –
21 | O=C(O)CC/C=C\C[C@@H]1CO[C@H](c2ccc(/C(=C\CCCCC(=O)O)c3cccnc3)cc2)O[C@@H]1c1ccccc1O | 0.1 | 0.04 | –
22 | O=C(O)CC/C=C\C[C@@H]1CO[C@H](c2cccc(COc3ccc(/C(=C\CCCCC(=O)O)c4cccnc4)cc3)c2)O[C@@H]1c1ccccc1O | 0.2 | 0.04 | –
23 | O=C(O)CC/C=C\C[C@@H]1CO[C@H](c2ccc(CCOc3ccc(/C(=C\CCCCC(=O)O)c4cccnc4)cc3)cc2)O[C@@H]1c1ccccc1O | 0.631 | 0.05 | –
24 | O=C(O)CC/C=C\C[C@@H]1CO[C@H](c2ccc(OCCOc3cc(C(=O)O)ccc3OCCn3ccnc3)cc2)O[C@@H]1c1ccccc1O | 0.501 | 0.06 | –
25 | O=C(O)CC/C=C\C[C@@H]1CO[C@H](CCCCCOc2cc(C(=O)O)ccc2OCCn2ccnc2)O[C@@H]1c1ccccc1O | 1.26 | 0.06 | –
26 | O=C(O)CC/C=C\C[C@@H]1CO[C@H](c2ccccc2OCCOc2ccc(/C(=C\CCCCC(=O)O)c3cccnc3)cc2)O[C@@H]1c1ccccc1O | 0.158 | 0.03 | –
27 | O=C(O)CC/C=C\C[C@@H]1CO[C@H](CCCCCCCCCCOc2ccc(/C(=C\CCCCC(=O)O)c3cccnc3)cc2)O[C@@H]1c1ccccc1O | 2.51 | 0.04 | –
28 | O=C(O)CCCC/C=C(\c1ccccc1)c1cccnc1 [(E)-ISBOGREL] | > 10 | – | inhibition in vivo at 1 mg/kg [4]: 82%; inhibition in vivo at 1 mg/kg [5]: 83%; inhibition in vivo at 10 mg/kg [6]: 97%; inhibition in vivo at 1 mg/kg [7]: 93%; inhibition in vivo at 10 mg/kg [8]: 87%; inhibition in vivo at 10 mg/kg [9]: 97%
29 | O=C(O)c1ccc(OCCn2ccnc2)cc1 [DAZOXIBEN] | > 10 | – | inhibition in vivo at 1 mg/kg [4]: 77%; inhibition in vivo at 1 mg/kg [5]: 91%; inhibition in vivo at 10 mg/kg [6]: 86%; inhibition in vivo at 1 mg/kg [7]: 73%; inhibition in vivo at 10 mg/kg [9]: 87%
